Patent US6372719B1, “ανβ3 integrin antagonists in combination with chemotherapeutic agents” (priority 1998, dated 2002)

Columns and labels:
M21 human melanoma = test: Tumor growth inhibition, M21 human melanoma in mice; format: in vivo, SCID mice; settings: cyclophosphamide 150 mg/kg ip on days 14, 16 and 18
Procedure: In this model, cyclophosphamide was administered (150 mg/kg;ip) on days 14, 16 and 18, and XII (10 mg/kg, BID, PO) was administered continuously after the chemotherapeutic beginning on day 21.

LLC tumor = test: Tumor growth inhibition, LLC tumor in mice
Procedure: Tumor cells for implantation were taken from cells either grown in tissue culture (Leydig, M21) or serially passaged as tumors in mice and prepared as tumor brei (LLC, PC-3) by methodology known in the art. Mice were injected subcutaneously in the proximal dorsal midline with 5×10^6 tumor cells and administration of test αvβ3 integrin antagonist compound was initiated the evening of the same day either prior to the chemotherapeutic agent, delayed and on the same day as the chemotherapeutic agent or delayed and following the chemotherapeutic agent. Tumor volumes were measured at intervals over the course of the experiments. Tumors were measured with a vernier caliper and volumes were determined using the formula for the volume of a cylinder: tumor volume=width^2×length×0.52. Blood was routinely drawn, for serum calcium determination and plasma drug concentration, 6 hours post-dosing on day 4 or 5 and again 12 hours post-dosing on the day of sacrifice. On the final day of the experiment, tumors were dissected free and weighed. Calcium concentrations of serum samples were determined calorimetrically using a clinical diagnostic kit. The data are expressed as the mean +/− SEM. Student's and Mann-Whitney tests were used to assess differences between means or medians using the InStat software package.

Rice Leydig tumor cells = test: Tumor growth inhibition, Rice Leydig tumor in SCID mice
Procedure: Tumor cells for implantation were taken from cells either grown in tissue culture (Leydig, M21) or serially passaged as tumors in mice and prepared as tumor brei (LLC, PC-3) by methodology known in the art. Mice were injected subcutaneously in the proximal dorsal midline with 5×10^6 tumor cells and administration of test αvβ3 integrin antagonist compound was initiated the evening of the same day either prior to the chemotherapeutic agent, delayed and on the same day as the chemotherapeutic agent or delayed and following the chemotherapeutic agent. Tumor volumes were measured at intervals over the course of the experiments. Tumors were measured with a vernier caliper and volumes were determined using the formula for the volume of a cylinder: tumor volume=width^2×length×0.52. […] On the final day of the experiment, tumors were dissected free and weighed. […] The data are expressed as the mean +/− SEM. Student's and Mann-Whitney tests were used to assess differences between means or medians using the InStat software package.

[1] = cisplatin 10 mg/kg ip day 5, XII at 10 mg/kg

Row | SMILES | Inhibition of growth of M21 tumors (M21 human melanoma) | Median survival time (LLC tumor; [1]) | Time to develop a tumor >500 mm^3 (LLC tumor; [1]) | Effect on growth of the LLC tumor (LLC tumor; cisplatin single ip dose 10 mg/kg on day 5, XII 1 and 10 mg/kg, oral, BID from day 1) | Tumor growth inhibition (Rice Leydig tumor cells; cisplatin at maximum tolerated dose, XII 10 mg/kg PO, compared to control-treated mice) | Effect on survival time (Rice Leydig tumor cells; tumor bearing SCID mice)
1 | O=P1(N(CCCl)CCCl)NCCCO1 (stereo not drawn) [Cyclophosphamide, cyclophosphamide] | significantly inhibited | – | – | – | – | –
2 | N.N.[Cl][Pt][Cl] [Cisplatin, cisplatin] | – | 33 days | 22.4 days | significantly retarded | approximately 50% | little effect
